Test results published in US20100004128A1, “HERBICIDAL ISOXAZOLINE COMPOUNDS” (SYNGENTA CROP PROTECTION, INC., priority 2006, published 2010).

Legend:
[1] = system: Monocotyledonous and dicotyledonous test plants; test: Herbicidal action, application pre-emergence; assay type: in vivo; design: key: 10=total damage to plant; 0=no damage to plant; conditions: spray solution 1000 mg/l, scale 0-10; for Herbicidal action (damage score) AGSTE: Agrostis tenius; for Herbicidal action (damage score) AMARE: Amaranthus retroflexus; for Herbicidal action (damage score) DIGSA: Digitaria sanguinalis; for Herbicidal action (damage score) POATR: Poa trivialis; for Herbicidal action (damage score) SETIT: Setaria italica; for Herbicidal action (damage score) SETFA: Setaria faberi
Protocol: Monocotyledonous and dicotyledonous test plants were sown in sterilised standard soil in seed trays each having 96 cells. After one day (pre-emergence) or after 8 to 9 days cultivation (post-emergence) under controlled conditions in a climatic chamber (cultivation at 23/17° C., day/night; 13 hours light; 50-60% humidity; after application at 24/19° C., day/night), the plants were treated with an aqueous spray solution of 1000 mg/l of the active ingredient used (incl. 10% DMSO as solvent). The plants were grown on in the climatic chamber until the test was evaluated (10=total damage to plant, 0=no damage to plant) after 9 or 13 days.

SMILES: Cn1nc(CF)c(C(F)(F)S(=O)(=O)C2=NOC(C)(C)C2)n1 [Compound No. 1.01, 4-[(5,5-dimethyl-4,5-dihydro-isoxazole-3-sulfonyl)-difluoro-methyl]-5-fluoromethyl-2-methyl-2H-[1,2,3]triazole]
- melting point: 54 °C
- Herbicidal action (damage score) AGSTE [1]: 10
- Herbicidal action (damage score) AMARE [1]: 10
- Herbicidal action (damage score) DIGSA [1]: 10
- Herbicidal action (damage score) POATR [1]: 10
- Herbicidal action (damage score) SETIT [1]: 10

SMILES: Cn1nc(CF)c(C(F)(Cl)S(=O)(=O)C2=NOC(C)(C)C2)n1 (stereo not drawn) [Compound No. 1.03, 4-[chloro-(5,5-dimethyl-4,5-dihydro-isoxazole-3-sulfonyl)-fluoro-methyl]-5-fluoromethyl-2-methyl-2H-[1,2,3]triazole]
- melting point: 80 °C
- Herbicidal action (damage score) AGSTE [1]: 10
- Herbicidal action (damage score) AMARE [1]: 8
- Herbicidal action (damage score) DIGSA [1]: 10
- Herbicidal action (damage score) POATR [1]: 10
- Herbicidal action (damage score) SETIT [1]: 9

SMILES: Cc1nn(C)nc1C(F)(F)S(=O)(=O)C1=NOC(C)(C)C1 [Compound No. 1.05]
- Herbicidal action (damage score) AGSTE [1]: 10
- Herbicidal action (damage score) AMARE [1]: 10
- Herbicidal action (damage score) DIGSA [1]: 10
- Herbicidal action (damage score) POATR [1]: 10
- Herbicidal action (damage score) SETIT [1]: 10

SMILES: Cc1nn(C)nc1C(F)(F)[S+]([O-])C1=NOC(C)(C)C1 (stereo not drawn) [Compound No. 1.08, 4-[(5,5-dimethyl-4,5-dihydro-isoxazole-3-sulfinyl)-difluoro-methyl]-2,5-dimethyl-2H-1,2,31-triazole]
- Herbicidal action (damage score) AGSTE [1]: 10
- Herbicidal action (damage score) AMARE [1]: 10
- Herbicidal action (damage score) DIGSA [1]: 10
- Herbicidal action (damage score) POATR [1]: 10
- Herbicidal action (damage score) SETFA [1]: 9

SMILES: CC1(C)CC(S(=O)(=O)C(F)c2cn(C(C)(C)C)nn2)=NO1 (stereo not drawn) [Compound No. 2.01]
- Herbicidal action (damage score) AGSTE [1]: 10
- Herbicidal action (damage score) AMARE [1]: 3
- Herbicidal action (damage score) DIGSA [1]: 9
- Herbicidal action (damage score) POATR [1]: 0
- Herbicidal action (damage score) SETFA [1]: 9

SMILES: Cn1nnc(C(F)(F)F)c1C(F)S(=O)(=O)C1=NOC(C)(C)C1 (stereo not drawn) [Compound No. 3.01]
- Herbicidal action (damage score) AGSTE [1]: 10
- Herbicidal action (damage score) AMARE [1]: 5
- Herbicidal action (damage score) DIGSA [1]: 10
- Herbicidal action (damage score) POATR [1]: 10
- Herbicidal action (damage score) SETIT [1]: 8

SMILES: Cn1nnc(C(F)(F)F)c1C(F)(F)[S+]([O-])C1=NOC(C)(C)C1 (stereo not drawn) [Compound No. 3.03]
- Herbicidal action (damage score) AGSTE [1]: 10
- Herbicidal action (damage score) AMARE [1]: 10
- Herbicidal action (damage score) DIGSA [1]: 9
- Herbicidal action (damage score) POATR [1]: 10
- Herbicidal action (damage score) SETFA [1]: 8

SMILES: Cn1nnc(Br)c1C(F)(F)S(=O)(=O)C1=NOC(C)(C)C1 [Compound No. 3.04]
- Herbicidal action (damage score) AGSTE [1]: 10
- Herbicidal action (damage score) AMARE [1]: 10
- Herbicidal action (damage score) DIGSA [1]: 9
- Herbicidal action (damage score) POATR [1]: 10
- Herbicidal action (damage score) SETFA [1]: 9
